Data reported in ChEMBL document CHEMBL1687752, “Impact of antifungal prophylaxis on colonization and azole susceptibility of Candida species” (2009).
≈ marks a conversion by molar mass, not a printed value.

Tested on: Pichia kudriavzevii
Assay: Antifungal activity against 14 days cultured Candida krusei isolated from neutropenic subject with AML or MDS pharynx after 12 days of prophylaxis by broth microdilution method
Assay type: functional
Conditions: not given

| SMILES | MIC |
| --- | --- |
| OC(Cn1cncn1)(Cn1cncn1)c1ccc(F)cc1F [FLUCONAZOLE] | 64 µg/mL (≈ 209 µM) |

Tested on: Nakaseomyces glabratus
Assay: Antifungal activity against Candida glabrata isolated from neutropenic subject 1497 with AML or MDS pharynx receiving antifungal drug after 61 days prophylaxis by broth microdilution method
Assay type: functional
Conditions: not given

| SMILES | MIC |
| --- | --- |
| OC(Cn1cncn1)(Cn1cncn1)c1ccc(F)cc1F [FLUCONAZOLE] | > 64 µg/mL |

Tested on: Nakaseomyces glabratus
Assay: Antifungal activity against Candida glabrata isolated from neutropenic subject 1491 with AML or MDS pharynx after 23 days prophylaxis by broth microdilution method
Assay type: functional
Conditions: 552 h

| SMILES | MIC |
| --- | --- |
| OC(Cn1cncn1)(Cn1cncn1)c1ccc(F)cc1F [FLUCONAZOLE] | 4 µg/mL (≈ 13.1 µM) |

Tested on: Candida albicans
Assay: Antifungal activity against Candida albicans isolated from HSCT recipients with acute or chronic GVHD receiving posaconazole assessed as maximum MIC by broth microdilution method
Assay type: functional
Conditions: not given

| SMILES | MIC |
| --- | --- |
| OC(Cn1cncn1)(Cn1cncn1)c1ccc(F)cc1F [FLUCONAZOLE] | 64 µg/mL |

Tested on: Nakaseomyces glabratus
Assay: Antifungal activity against Candida glabrata isolated from neutropenic subject 1497 with AML or MDS pharynx after 61 days prophylaxis by broth microdilution method
Assay type: functional
Conditions: not given

| SMILES | MIC |
| --- | --- |
| OC(Cn1cncn1)(Cn1cncn1)c1ccc(F)cc1F [FLUCONAZOLE] | 2 µg/mL (≈ 6.53 µM) |

Tested on: Nakaseomyces glabratus
Assay: Antifungal activity against Candida glabrata isolated from HSCT recipient 975 with acute or chronic GVHD mouth after 112 days prophylaxis by broth microdilution method
Assay type: functional
Conditions: not given

| SMILES | MIC |
| --- | --- |
| OC(Cn1cncn1)(Cn1cncn1)c1ccc(F)cc1F [FLUCONAZOLE] | 4 µg/mL (≈ 13.1 µM) |

Tested on: Nakaseomyces glabratus
Assay: Antifungal activity against 176 days cultured Candida glabrata isolated from HSCT recipient with acute or chronic GVHD mouth receiving antifungal therapy for 168 days after 113 days of prophylaxis by broth microdilution method
Assay type: functional
Conditions: not given

| SMILES | MIC |
| --- | --- |
| OC(Cn1cncn1)(Cn1cncn1)c1ccc(F)cc1F [FLUCONAZOLE] | > 64 µg/mL |

Tested on: Nakaseomyces glabratus
Assay: Antifungal activity against Candida glabrata isolated from neutropenic subject 1187 with AML or MDS stool after 22 days prophylaxis by broth microdilution method
Assay type: functional
Conditions: 528 h

| SMILES | MIC |
| --- | --- |
| OC(Cn1cncn1)(Cn1cncn1)c1ccc(F)cc1F [FLUCONAZOLE] | 16 µg/mL (≈ 52.2 µM) |

Tested on: Nakaseomyces glabratus
Assay: Antifungal activity against Candida glabrata isolated from HSCT recipient 270 with acute or chronic GVHD mouth after 108 days prophylaxis by broth microdilution method
Assay type: functional
Conditions: not given

| SMILES | MIC |
| --- | --- |
| OC(Cn1cncn1)(Cn1cncn1)c1ccc(F)cc1F [FLUCONAZOLE] | 8 µg/mL (≈ 26.1 µM) |

Tested on: Nakaseomyces glabratus
Assay: Antifungal activity against 12 days cultured Candida glabrata isolated from HSCT recipient with acute or chronic GVHD mouth receiving antifungal therapy for 143 days after 116 days of prophylaxis by broth microdilution method
Assay type: functional
Conditions: not given

| SMILES | MIC |
| --- | --- |
| OC(Cn1cncn1)(Cn1cncn1)c1ccc(F)cc1F [FLUCONAZOLE] | 64 µg/mL (≈ 209 µM) |

Tested on: Nakaseomyces glabratus
Assay: Antifungal activity against 3 days cultured Candida glabrata isolated from neutropenic subject with AML or MDS stool receiving antifungal therapy for 25 days after 3 days of prophylaxis by broth microdilution method
Assay type: functional
Conditions: not given

| SMILES | MIC |
| --- | --- |
| OC(Cn1cncn1)(Cn1cncn1)c1ccc(F)cc1F [FLUCONAZOLE] | 8 µg/mL (≈ 26.1 µM) |

Tested on: Nakaseomyces glabratus
Assay: Antifungal activity against Candida glabrata isolated from HSCT recipient 497 with acute or chronic GVHD mouth after 114 days prophylaxis by broth microdilution method
Assay type: functional
Conditions: not given

| SMILES | MIC |
| --- | --- |
| OC(Cn1cncn1)(Cn1cncn1)c1ccc(F)cc1F [FLUCONAZOLE] | 16 µg/mL (≈ 52.2 µM) |

Tested on: Candida albicans
Assay: Antifungal activity against Candida albicans isolated from HSCT recipients with acute or chronic GVHD prior to initiation of posaconazole therapy assessed as maximum MIC by broth microdilution method
Assay type: functional
Conditions: not given

| SMILES | MIC |
| --- | --- |
| OC(Cn1cncn1)(Cn1cncn1)c1ccc(F)cc1F [FLUCONAZOLE] | 64 µg/mL |

Tested on: Nakaseomyces glabratus
Assay: Antifungal activity against Candida glabrata isolated from neutropenic subjects with AML or MDS prior to initiation of posaconazole therapy by broth microdilution method
Assay type: functional
Conditions: not given

| SMILES | MIC50 | MIC90 |
| --- | --- | --- |
| OC(Cn1cncn1)(Cn1cncn1)c1ccc(F)cc1F [FLUCONAZOLE] | 4 µg/mL (≈ 13.1 µM) | 16 µg/mL (≈ 52.2 µM) |

Tested on: Nakaseomyces glabratus
Assay: Antifungal activity against 43 days cultured Candida glabrata isolated from HSCT recipient with acute or chronic GVHD mouth receiving antifungal therapy for 172 days after 114 days of prophylaxis by broth microdilution method
Assay type: functional
Conditions: not given

| SMILES | MIC |
| --- | --- |
| OC(Cn1cncn1)(Cn1cncn1)c1ccc(F)cc1F [FLUCONAZOLE] | 16 µg/mL (≈ 52.2 µM) |

Tested on: Nakaseomyces glabratus
Assay: Antifungal activity against 1 day cultured Candida glabrata isolated from HSCT recipient with acute or chronic GVHD mouth after 17 days of prophylaxis by broth microdilution method
Assay type: functional
Conditions: not given

| SMILES | MIC |
| --- | --- |
| OC(Cn1cncn1)(Cn1cncn1)c1ccc(F)cc1F [FLUCONAZOLE] | > 64 µg/mL |

Tested on: Nakaseomyces glabratus
Assay: Antifungal activity against Candida glabrata isolated from HSCT recipient 975 with acute or chronic GVHD mouth receiving antifungal drug after 112 days prophylaxis by broth microdilution method
Assay type: functional
Conditions: not given

| SMILES | MIC |
| --- | --- |
| OC(Cn1cncn1)(Cn1cncn1)c1ccc(F)cc1F [FLUCONAZOLE] | 128 µg/mL (≈ 418 µM) |

Tested on: Nakaseomyces glabratus
Assay: Antifungal activity against 35 days cultured Candida glabrata isolated from HSCT recipient with acute or chronic GVHD mouth receiving antifungal therapy for 165 days after 138 days of prophylaxis by broth microdilution method
Assay type: functional
Conditions: not given

| SMILES | MIC |
| --- | --- |
| OC(Cn1cncn1)(Cn1cncn1)c1ccc(F)cc1F [FLUCONAZOLE] | 64 µg/mL (≈ 209 µM) |

Tested on: Nakaseomyces glabratus
Assay: Antifungal activity against 16 days cultured Candida glabrata isolated from HSCT recipient with acute or chronic GVHD mouth receiving antifungal therapy for 31 days after 28 days of prophylaxis by broth microdilution method
Assay type: functional
Conditions: not given

| SMILES | MIC |
| --- | --- |
| OC(Cn1cncn1)(Cn1cncn1)c1ccc(F)cc1F [FLUCONAZOLE] | < 2 µg/mL |

Tested on: Nakaseomyces glabratus
Assay: Antifungal activity against Candida glabrata isolated from HSCT recipients with acute or chronic GVHD receiving fluconazole by broth microdilution method
Assay type: functional
Conditions: not given

| SMILES | MIC50 | MIC90 |
| --- | --- | --- |
| OC(Cn1cncn1)(Cn1cncn1)c1ccc(F)cc1F [FLUCONAZOLE] | 32 µg/mL (≈ 104 µM) | 64 µg/mL (≈ 209 µM) |
